Legend:
Type in all cases: cell-based, human
[1] = test system: LPS-stimulated macrophages; test: Cytokine secretion in LPS-stimulated monocyte-derived macrophages; details: LPS 100 ng/mL 4 or 24 h
Procedure: (§1) Culture supernatants were centrifuged, and the supernatants were collected and analyzed for selected cytokines and chemokines using Milliplex Magpix assays (catalog HCYTO – 60K; Millipore Sigma, Burlington, MA). Levels of proinflammatory cytokines TNF and MCP-1 for the monocytes and macrophages were quantified using specific ELISA kits (R&D, NJ, USA) according to the manufacturer’s recommendations. Data were processed using Milliplex Analyst, and significance was calculated using the one-way analysis of variance (ANOVA) with Dunnett’s post-test algorithms in GraphPad Prism version 5.01. PBMCs were isolated from buffy coat using the Ficoll gradient method. Monocytes were isolated using the […] Technologies Inc. kit (catalog number 19058; Vancouver, BC, Canada). […] Macrophages were then plated and allowed to acclimate for 24 h. […] Medium from the cultured macrophages was used for cytokine analysis using Magpix magnetic beads (Catalog HCYTO – 60K; Millipore Sigma, Burlington, MA). Cell pellets from the macrophage cultures were collected for western blot analysis using capillary electrophoresis to analyze the effect on TTP, with glyceraldehyde 3-phosphate dehydrogenase (GAPDH) used as the house-keeping protein in the capillary electrophoresis. Antibodies against total TTP (CST#7162 Rabbit Monoclonal antibody) and GAPDH (CST#5174 Rabbit Monoclonal antibody) were used to detect the respective proteins.

TTP = test: Total TTP protein by capillary electrophoresis in LPS-stimulated macrophages; details: 4 h or 24 h
Procedure: Monocytes and macrophages were pre-treated for 1 h with DMSO or compound, followed by LPS stimulation (100 ng/mL) for 4 or 24 h (includes 1 h pre-treatment). Medium from the cultured macrophages was used for cytokine analysis using Magpix magnetic beads (Catalog HCYTO – 60K; Millipore Sigma, Burlington, MA). Cell pellets from the macrophage cultures were collected for western blot analysis using capillary electrophoresis to analyze the effect on TTP, with glyceraldehyde 3-phosphate dehydrogenase (GAPDH) used as the house-keeping protein in the capillary electrophoresis. Antibodies against total TTP (CST#7162 Rabbit Monoclonal antibody) and GAPDH (CST#5174 Rabbit Monoclonal antibody) were used to detect the respective proteins.

LPS-stimulated monocytes = test: Cytokine secretion in LPS-stimulated monocytes; details: LPS 100 ng/mL 4 or 24 h
Procedure: as §1

[2] = test system: SEB/IL-2-stimulated PBMCs; test: Cytokine production in SEB/IL-2-stimulated PBMCs; details: PBMCs from healthy donors and AS patients, SEB + IL-2 72 h

`CCOCc1cnc(Cl)nc1Oc1ccc2c(ccc3sc4c(c32)NC[C@@H](C)NC4=O)n1` [CC-99677] was tested, and the TNF secretion [1] was “strong concentration-dependent inhibition”, the IL-1β secretion ([1]; more potent than in monocytes) was “concentration-dependent inhibition” and the IL-6 secretion ([1]; more potent than in monocytes) was “concentration-dependent inhibition”. For the same compound, the “Total TTP levels (surrogate for TTP phosphorylation state)” value (TTP) was “dose-dependent reduction in total TTP levels”, the IL-1β secretion (LPS-stimulated monocytes) was “concentration-dependent inhibition” and the IL-6 secretion (LPS-stimulated monocytes) was “concentration-dependent inhibition”. For the same compound, the TNF secretion (LPS-stimulated monocytes) was “strong concentration-dependent inhibition”, the IL-6 expression [2] was “inhibited” and the IL-17A expression [2] was “inhibited”. For the same compound, the MCP-1 expression [2] was “inhibited” and the TNF expression [2] was “inhibited”.

Reference: PMC9386913 (Arthritis Research & Therapy, 2022)
